US12599672B2, “KRAS proteolysis targeting chimeras” (PAQ Therapeutics Inc., priority 2023, dated 2026)

Key:
Type in all cases: cell-based
KRAS = target: T1, KRAS (Homo sapiens, UniProt P01116); assay: KRASamp MSD assay; details: KE39 (KRAS amplified) cells, treated with test compounds for 24 hr, MSD readout of KRAS degradation
T1 construct: endogenous in cells; host or cells: KE39 (KRAS amplified) cells
Method in brief: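 KRAS-amplified KE39 cells treated with compound for 24 hr, then lysed in RIPA buffer with protease/phosphatase inhibitors. KRAS protein measured by MSD sandwich immunoassay against a recombinant WT KRAS standard curve; DC50 derived from curve fitting of degradation.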

KRAS G12V = target: T2, KRAS G12V (Homo sapiens, UniProt P01116, G12V); assay: KRAS G12V HiBit assay; details: SW620-KRAS (G12V)-HiBit-KI cells, compound treatment for 24 hours
T2 construct: SW620-KRAS (G12V)-HiBit-KI cell (Pharmaron); host or cells: SW620-KRAS (G12V)-HiBit-KI cells (HiBiT knock-in at the endogenous KRAS locus)
Method in brief: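 HiBiT-tagged KRAS G12V cells treated 24 h with compound in a 3-fold, 10-point series (0.3 mM DMSO stock); lytic HiBiT reagent with LgBiT added after 15 min room-temperature equilibration. Degradation calculated against 0.1% DMSO high control.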

KRAS G12D = target: T3, KRAS G12D (Homo sapiens, UniProt P01116, G12D); assay: KRAS G12D HiBit assay; details: AsPc-1-KRAS (G12D)-HiBit-KI cell, compound treatment for 24 hours, absolute DC50; class symbols
T3 construct: AsPc-1-KRAS (G12D)-HiBit-KI cell (Pharmaron); host or cells: AsPc-1-KRAS (G12D)-HiBit-KI cells (HiBiT knock-in at the endogenous KRAS locus)
Method in brief: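 Cells were treated for 24 h with compounds in a 3-fold, 10-point dilution series from a 0.3 mM DMSO stock, then equilibrated 15 min at room temperature. KRAS G12D HiBiT levels were read by luminescence after lytic Nano-Glo HiBiT reagent with LgBiT; inhibition calculated relative to 0.1% DMSO high control.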

T1 sequence (P01116 1-188 isoform P01116-2): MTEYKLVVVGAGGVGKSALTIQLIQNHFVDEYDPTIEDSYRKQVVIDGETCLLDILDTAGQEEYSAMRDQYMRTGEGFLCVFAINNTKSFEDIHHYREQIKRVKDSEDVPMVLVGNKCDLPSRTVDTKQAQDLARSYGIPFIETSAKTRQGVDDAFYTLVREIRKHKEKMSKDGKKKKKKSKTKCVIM
T3 sequence (P01116 1-188 isoform P01116-2 G12D): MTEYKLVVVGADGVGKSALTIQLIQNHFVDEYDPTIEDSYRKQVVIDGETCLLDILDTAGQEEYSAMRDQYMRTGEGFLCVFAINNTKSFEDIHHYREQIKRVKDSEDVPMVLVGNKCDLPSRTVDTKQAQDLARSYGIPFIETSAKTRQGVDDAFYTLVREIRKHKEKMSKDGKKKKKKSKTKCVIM
T2 sequence (P01116 1-188 isoform P01116-2 G12V): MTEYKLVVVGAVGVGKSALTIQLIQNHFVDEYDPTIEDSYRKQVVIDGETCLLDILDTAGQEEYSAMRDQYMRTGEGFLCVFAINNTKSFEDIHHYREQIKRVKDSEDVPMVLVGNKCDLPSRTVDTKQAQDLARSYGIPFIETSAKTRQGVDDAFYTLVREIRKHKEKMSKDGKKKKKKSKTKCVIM

DC50 (KRAS) | DC50 (KRAS G12V; class symbols) | DC50 (KRAS G12D) | DC50 (KRAS G12V; numeric bounds) | SMILES
0.001 to 0.01 µM | < 0.01 µM | < 0.1 µM |  | CCc1c(F)ccc2cc(O)cc(-c3ncc4c(N5CCC[C@@](C)(O)C5)nc(OC[C@@]56CCCN5[C@H](COC(=O)N5CCC(OCCC#Cc7ccc8c(c7)n(C)c(=O)n8C7CCC(=O)NC7=O)CC5)CC6)nc4c3F)c12 (stereo partly drawn) [Compound 371, ((3S,7aS)-7a-(((7-(8-ethyl-7-fluoro-3-hydroxynaphthalen-1-yl)-8-fluoro-4-((R)-3-hydroxy-3-methylpiperidin-1-yl)pyrido[4,3-d]pyrimidin-2-yl)oxy)methyl)hexahydro-1H-pyrrolizin-3-yl)methyl 4-((4-(1-(2,6-dioxopiperidin-3-yl)-3-methyl-2-oxo-2,3-dihydro-1H-benzo[d]imidazol-5-yl)but-3-yn-1-yl)oxy)piperidine-1-carboxylate]
0.001 to 0.01 µM | 0.01 to 0.1 µM | < 0.1 µM |  | C#Cc1c(F)ccc2cc(O)cc(-c3ncc4c(N5CCC[C@@](C)(O)C5)nc(OC[C@@]56CCCN5[C@H](COC(=O)N5CCC(OCC#Cc7cccc8c7n(C)c(=O)n8C7CCC(=O)NC7=O)CC5)CC6)nc4c3F)c12 (stereo partly drawn) [Compound 372, ((3S,7aS)-7a-(((7-(8-ethynyl-7-fluoro-3-hydroxynaphthalen-1-yl)-8-fluoro-4-((R)-3-hydroxy-3-methylpiperidin-1-yl)pyrido[4,3-d]pyrimidin-2-yl)oxy)methyl)hexahydro-1H-pyrrolizin-3-yl)methyl 4-((3-(1-(2,6-dioxopiperidin-3-yl)-3-methyl-2-oxo-2,3-dihydro-1H-benzo[d]imidazol-4-yl)prop-2-yn-1-yl)oxy)piperidine-1-carboxylate]
0.001 to 0.01 µM | < 0.01 µM | < 0.1 µM |  | C#Cc1c(F)ccc2cc(O)cc(-c3ncc4c(N5CCC[C@@](C)(O)C5)nc(OC[C@@]56CCCN5[C@H](COC(=O)N5CCC(OCC#Cc7ccc8c(c7)n(C)c(=O)n8C7CCC(=O)NC7=O)CC5)CC6)nc4c3F)c12 (stereo partly drawn) [Compound 373, ((3S,7aS)-7a-(((7-(8-ethynyl-7-fluoro-3-hydroxynaphthalen-1-yl)-8-fluoro-4-((R)-3-hydroxy-3-methylpiperidin-1-yl)pyrido[4,3-d]pyrimidin-2-yl)oxy)methyl)hexahydro-1H-pyrrolizin-3-yl)methyl 4-((3-(1-(2,6-dioxopiperidin-3-yl)-3-methyl-2-oxo-2,3-dihydro-1H-benzo[d]imidazol-5-yl)prop-2-yn-1-yl)oxy)piperidine-1-carboxylate]
0.001 to 0.01 µM | 0.01 to 0.1 µM | 0.1 to 0.3 µM |  | C#Cc1c(F)ccc2cc(O)cc(-c3ncc4c(N5CCC[C@@](C)(O)C5)nc(OC[C@@]56CCCN5[C@H](COC(=O)N5CCC(CC#Cc7cccc8c7n(C)c(=O)n8C7CCC(=O)NC7=O)CC5)CC6)nc4c3F)c12 (stereo partly drawn) [Compound 374, ((3S,7aS)-7a-(((7-(8-ethynyl-7-fluoro-3-hydroxynaphthalen-1-yl)-8-fluoro-4-((R)-3-hydroxy-3-methylpiperidin-1-yl)pyrido[4,3-d]pyrimidin-2-yl)oxy)methyl)hexahydro-1H-pyrrolizin-3-yl)methyl 4-(3-(1-(2,6-dioxopiperidin-3-yl)-3-methyl-2-oxo-2,3-dihydro-1H-benzo[d]imidazol-4-yl)prop-2-yn-1-yl)piperidine-1-carboxylate]
0.001 to 0.01 µM | < 0.01 µM | < 0.1 µM |  | C#Cc1c(F)ccc2cc(O)cc(-c3ncc4c(N5CCC[C@@](C)(O)C5)nc(OC[C@@]56CCCN5[C@H](COC(=O)N5CCC(CC#Cc7ccc8c(c7)n(C)c(=O)n8C7CCC(=O)NC7=O)CC5)CC6)nc4c3F)c12 (stereo partly drawn) [Compound 375, ((3S,7aS)-7a-(((7-(8-ethynyl-7-fluoro-3-hydroxynaphthalen-1-yl)-8-fluoro-4-((R)-3-hydroxy-3-methylpiperidin-1-yl)pyrido[4,3-d]pyrimidin-2-yl)oxy)methyl)hexahydro-1H-pyrrolizin-3-yl)methyl 4-(3-(1-(2,6-dioxopiperidin-3-yl)-3-methyl-2-oxo-2,3-dihydro-1H-benzo[d]imidazol-5-yl)prop-2-yn-1-yl)piperidine-1-carboxylate]
< 0.001 µM | < 0.01 µM | < 0.1 µM |  | CCc1c(F)ccc2cc(O)cc(-c3cc4nc(OC[C@@]56CCCN5[C@H](COC(=O)N5CCC(CN7CCC(c8ccc9c(c8)n(C)c(=O)n9C8CCC(=O)NC8=O)CC7)CC5)CC6)nc(N5CCC[C@@](C)(O)C5)c4cn3)c12 (stereo partly drawn) [Compound 377, ((3S,7aS)-7a-(((7-(8-ethyl-7-fluoro-3-hydroxynaphthalen-1-yl)-4-((R)-3-hydroxy-3-methylpiperidin-1-yl)pyrido[4,3-d]pyrimidin-2-yl)oxy)methyl)hexahydro-1H-pyrrolizin-3-yl)methyl 4-((4-(1-(2,6-dioxopiperidin-3-yl)-3-methyl-2-oxo-2,3-dihydro-1H-benzo[d]imidazol-5-yl)piperidin-1-yl)methyl)piperidine-1-carboxylate]
< 0.001 µM | < 0.01 µM | < 0.1 µM |  | CCc1cccc2cc(O)cc(-c3cc4nc(OC[C@@]56CCCN5[C@H](COC(=O)N5CCC(CN7CCC(c8ccc9c(c8)n(C)c(=O)n9C8CCC(=O)NC8=O)CC7)CC5)CC6)nc(N5CCC[C@@](C)(O)C5)c4cn3)c12 (stereo partly drawn) [Compound 378, ((3S,7aS)-7a-(((7-(8-ethyl-3-hydroxynaphthalen-1-yl)-4-((R)-3-hydroxy-3-methylpiperidin-1-yl)pyrido[4,3-d]pyrimidin-2-yl)oxy)methyl)hexahydro-1H-pyrrolizin-3-yl)methyl 4-((4-(1-(2,6-dioxopiperidin-3-yl)-3-methyl-2-oxo-2,3-dihydro-1H-benzo[d]imidazol-5-yl)piperidin-1-yl)methyl)piperidine-1-carboxylate]
< 0.001 µM | < 0.01 µM | < 0.1 µM |  | CCc1c(F)ccc2cc(O)cc(-c3ncc4c(N5CCCCC5)nc(OC[C@@]56CCCN5[C@H](CN5CCC(CN7CCC(c8ccc9c(c8)n(C)c(=O)n9C8CCC(=O)NC8=O)CC7)CC5)CC6)nc4c3F)c12 (stereo partly drawn) [Compound 379, 3-(5-(1-((1-(((3S,7aS)-7a-(((7-(8-ethyl-7-fluoro-3-hydroxynaphthalen-1-yl)-8-fluoro-4-(piperidin-1-yl)pyrido[4,3-d]pyrimidin-2-yl)oxy)methyl)hexahydro-1H-pyrrolizin-3-yl)methyl)piperidin-4-yl)methyl)piperidin-4-yl)-3-methyl-2-oxo-2,3-dihydro-1H-benzo[d]imidazol-1-yl)piperidine-2,6-dione]
≥ 0.01 µM |  | < 0.1 µM | > 0.0915 µM | CCc1c(F)ccc2cc(O)cc(-c3ncc4c(N5CCC[C@@](C)(O)C5)nc(OC[C@@]56CCCN5C(CN5CCC(Cc7ccc8c(c7)n(C)c(=O)n8C7CCC(=O)NC7=O)CC5)CC6)nc4c3F)c12 (stereo partly drawn) [Compound 383, 3-(5-((1-(((7aS)-7a-(((7-(8-ethyl-7-fluoro-3-hydroxynaphthalen-1-yl)-8-fluoro-4-((R)-3-hydroxy-3-methylpiperidin-1-yl)pyrido[4,3-d]pyrimidin-2-yl)oxy)methyl)hexahydro-1H-pyrrolizin-3-yl)methyl)piperidin-4-yl)methyl)-3-methyl-2-oxo-2,3-dihydro-1H-benzo[d]imidazol-1-yl)piperidine-2,6-dione]
0.001 to 0.01 µM | 0.01 to 0.1 µM | < 0.1 µM |  | CCc1c(F)ccc2cc(O)cc(-c3ncc4c(N5CCC[C@@](C)(O)C5)nc(OC[C@@]56CCCN5C(CN5CCC(OCCCc7ccc8c(c7)n(C)c(=O)n8C7CCC(=O)NC7=O)CC5)CC6)nc4c3F)c12 (stereo partly drawn) [Compound 384, 3-(5-(3-((1-(((35,7aS)-7a-(((7-(8-Ethyl-7-fluoro-3-hydroxynaphthalen-1-yl)-8-fluoro-4-((R)-3-hydroxy-3-methylpiperidin-1-yl)pyrido[4,3-d]pyrimidin-2-yl)oxy)methyl)hexahydro-1H-pyrrolizin-3-yl)methyl)piperidin-4-yl)oxy)propyl)-3-methyl-2-oxo-2,3-dihydro-1H-benzo[d]imidazol-1-yl) piperidine-2,6-dione]
≥ 0.01 µM | < 0.01 µM | < 0.1 µM |  | C#Cc1c(F)ccc2cc(O)cc(-c3ncc4c(N5CCC[C@@](C)(O)C5)nc(OC[C@@]56CCCN5[C@H](COC(=O)N5CCC7(CC5)CC(N5CCC(c8cccc9c8n(C)c(=O)n9C8CCC(=O)NC8=O)CC5)C7)CC6)nc4c3F)c12 (stereo partly drawn) [Compound 387, ((3S,7aS)-7a-(((7-(8-ethynyl-7-fluoro-3-hydroxynaphthalen-1-yl)-8-fluoro-4-((R)-3-hydroxy-3-methylpiperidin-1-yl)pyrido[4,3-d]pyrimidin-2-yl)oxy)methyl)hexahydro-1H-pyrrolizin-3-yl)methyl 2-(4-(1-(2,6-dioxopiperidin-3-yl)-3-methyl-2-oxo-2,3-dihydro-1H-benzo[d]imidazol-4-yl)piperidin-1-yl)-7-azaspiro[3.5]nonane-7-carboxylate]
